According to PMC11003488 (Journal of Enzyme Inhibition and Medicinal Chemistry, 2023):

What was measured:
Test in all cases: NCI-60 SRB growth inhibition, one-dose and five-dose
Type in all cases: cell-based
RPMI-8226 = details: Homo sapiens
SR = details: Homo sapiens
MDA-MB-435 = details: Homo sapiens
MALME-3M = details: Homo sapiens
M14 = details: Homo sapiens
DU-145 = details: Homo sapiens
LOX IMVI = details: Homo sapiens
TK-10 = details: Homo sapiens
HCC-2998 = details: Homo sapiens
HOP-92 = details: Homo sapiens
PC-3 = details: Homo sapiens
EKVX = details: Homo sapiens
CCRF-CEM = details: Homo sapiens
NCI-H522 = details: Homo sapiens
HOP-62 = details: Homo sapiens
UACC-62 = details: Homo sapiens
A498 = details: Homo sapiens
SN12C = details: Homo sapiens, read-out: percent growth inhibition
SK-MEL-28 = details: Homo sapiens
U251 = details: Homo sapiens
786-0 = details: Homo sapiens
SW-620 = details: Homo sapiens
NCI-H226 = details: Homo sapiens
NCI-H23 = details: Homo sapiens
K-562 = details: Homo sapiens
SK-OV-3 = details: Homo sapiens
A549/ATCC = details: Homo sapiens
NCI/ADR-RES = details: Homo sapiens
SK-MEL-5 = details: Homo sapiens
MCF7 = details: Homo sapiens
MDA-MB-468 = details: Homo sapiens
T-47D = details: Homo sapiens, T47D
BT-549 = details: Homo sapiens
ACHN = details: Homo sapiens
HT29 = details: Homo sapiens
CAKI-1 = details: Homo sapiens
SNB-75 = details: Homo sapiens
SK-MEL-2 = details: Homo sapiens
SF-268 = details: Homo sapiens
NCI-H322M = details: Homo sapiens
OVCAR-8 = details: Homo sapiens
NCI-H460 = details: Homo sapiens
KM12 = details: Homo sapiens
[1] = read-out: percent growth inhibition

Compound: CC(=O)Nc1ccc(/C=C/C(=O)c2cccc(NCc3ccc(CO)cc3)c2)cc1 [Compound 5j, (E)-N-(4–(3-(3-((4-(hydroxymethyl)benzyl)amino)phenyl)-3-oxoprop-1-en-1-yl)phenyl) acetamide]
- GI50 (RPMI-8226; RPMI-8226): 2.84 µM
- inhibition at 10 µM (RPMI-8226; RPMI-8226, read-out: percent growth inhibition): 134%
- GI50 (SR): 2.61 µM
- GI50 (MDA-MB-435; MDA-MB-435): 13.8 µM
- inhibition at 10 µM (MDA-MB-435; MDA-MB-435, read-out: percent growth inhibition): 79.8%
- GI50 (MALME-3M): 11 µM
- inhibition at 10 µM (MALME-3M; [1]): 141%
- GI50 (M14; M14): 14.3 µM
- inhibition at 10 µM (M14; M14, read-out: percent growth inhibition): 146%
- GI50 (DU-145; DU-145): 5.03 µM
- inhibition at 10 µM (DU-145; DU-145, read-out: percent growth inhibition): 84.8%
- GI50 (LOX IMVI): 2.96 µM
- inhibition at 10 µM (LOX IMVI; [1]): 194%
- GI50 (TK-10; TK-10): 16.1 µM
- inhibition at 10 µM (TK-10; TK-10, read-out: percent growth inhibition): 95.1%
- GI50 (HCC-2998; HCC 2998): 13.2 µM
- inhibition at 10 µM (HCC-2998; HCC 2998, read-out: percent growth inhibition): 199%
- GI50 (HOP-92; HOP-92): 14.1 µM
- inhibition at 10 µM (HOP-92; HOP-92, read-out: percent growth inhibition): 34.6%
- GI50 (PC-3; PC-3): 12.3 µM
- inhibition at 10 µM (PC-3; PC-3, read-out: percent growth inhibition): 81.8%
- GI50 (EKVX): 14.4 µM
- inhibition at 10 µM (EKVX; [1]): 88.9%
- GI50 (CCRF-CEM): 8.8 µM
- inhibition at 10 µM (CCRF-CEM; [1]): 121%
- GI50 (NCI-H522; NCI-H522): 5 µM
- inhibition at 10 µM (NCI-H522; NCI-H522, read-out: percent growth inhibition): 178%
- GI50 (HOP-62; HOP-62): 18.9 µM
- inhibition at 10 µM (HOP-62; HOP-62, read-out: percent growth inhibition): 93.7%
- GI50 (UACC-62; UACC-62): 10.8 µM
- inhibition at 10 µM (UACC-62; UACC-62, read-out: percent growth inhibition): 156%
- GI50 (A498; A498): 15 µM
- inhibition at 10 µM (A498; A498, read-out: percent growth inhibition): 3.83%
- inhibition at 10 µM (SN12C): 149%
- GI50 (SK-MEL-28; SK-MEL-28): 13.4 µM
- inhibition at 10 µM (SK-MEL-28; SK-MEL-28, read-out: percent growth inhibition): 167%
- GI50 (U251; U-251): 3.6 µM
- inhibition at 10 µM (U251; U-251, read-out: percent growth inhibition): 195%
- GI50 (786-0; 786-0): 14.1 µM
- inhibition at 10 µM (786-0; 786-0, read-out: percent growth inhibition): 186%
- GI50 (SW-620; SW-620): 4.27 µM
- inhibition at 10 µM (SW-620; SW-620, read-out: percent growth inhibition): 157%
- GI50 (NCI-H226; NCI-H226): 13.7 µM
- inhibition at 10 µM (NCI-H226; NCI-H226, read-out: percent growth inhibition): 138%
- GI50 (NCI-H23; NCI-H23): 13.9 µM
- inhibition at 10 µM (NCI-H23; NCI-H23, read-out: percent growth inhibition): 95.9%
- GI50 (K-562; K562): 3.43 µM
- inhibition at 10 µM (K-562; K562, read-out: percent growth inhibition): 104%
- GI50 (SK-OV-3; SK-OV-3): 16.3 µM
- inhibition at 10 µM (SK-OV-3; SK-OV-3, read-out: percent growth inhibition): 4.73%
- GI50 (A549/ATCC; A549): 17.2 µM
- inhibition at 10 µM (A549/ATCC; A549, read-out: percent growth inhibition): 34.3%
- GI50 (NCI/ADR-RES): 16.8 µM
- inhibition at 10 µM (NCI/ADR-RES; [1]): 126%
- GI50 (SK-MEL-5; SK-MEL-5): 10.2 µM
- inhibition at 10 µM (SK-MEL-5; SK-MEL-5, read-out: percent growth inhibition): 183%
- GI50 (MCF7; MCF7): 3.19 µM
- inhibition at 10 µM (MCF7; MCF7, read-out: percent growth inhibition): 126%
- GI50 (MDA-MB-468; MDA-MB-468): 6.27 µM
- inhibition at 10 µM (MDA-MB-468; MDA-MB-468, read-out: percent growth inhibition): 171%
- GI50 (T-47D): 13.5 µM
- inhibition at 10 µM (T-47D; [1]): 70.2%
- GI50 (BT-549; BT-549): 12.1 µM
- inhibition at 10 µM (BT-549; BT-549, read-out: percent growth inhibition): 119%
- GI50 (ACHN): 10.3 µM
- inhibition at 10 µM (ACHN; [1]): 155%
- GI50 (HT29; HT-29): 6.06 µM
- inhibition at 10 µM (HT29; HT-29, read-out: percent growth inhibition): 180%
- GI50 (CAKI-1; CAKI-1): 14.8 µM
- inhibition at 10 µM (CAKI-1; CAKI-1, read-out: percent growth inhibition): 134%
- GI50 (SNB-75; SNB-75): 11.9 µM
- inhibition at 10 µM (SNB-75; SNB-75, read-out: percent growth inhibition): 18.2%
- GI50 (SK-MEL-2; SK-MEL-2): 15.3 µM
- inhibition at 10 µM (SK-MEL-2; SK-MEL-2, read-out: percent growth inhibition): 53.9%
- GI50 (SF-268; SF-268): 15.4 µM
- inhibition at 10 µM (SF-268; SF-268, read-out: percent growth inhibition): 88.8%
- GI50 (NCI-H322M): 14.4 µM
- inhibition at 10 µM (NCI-H322M; [1]): 38.8%
- GI50 (OVCAR-8; OVCAR-8): 14.8 µM
- inhibition at 10 µM (OVCAR-8; OVCAR-8, read-out: percent growth inhibition): 130%
- GI50 (NCI-H460; NCI-H460): 13.4 µM
- inhibition at 10 µM (NCI-H460; NCI-H460, read-out: percent growth inhibition): 148%
- GI50 (KM12; KM12): 3.93 µM
- inhibition at 10 µM (KM12; KM12, read-out: percent growth inhibition): 158%
